Measurements published in US10173991B2, “Sulfone amide linked benzothiazole inhibitors of endothelial lipase” (BRISTOL-MYERS SQUIBB COMPANY, priority 2014, dated 2019).
Like-named read-outs stand apart in the source and are kept apart here.

Biological target: Endothelial lipase (EL) (Homo sapiens (Human), UniProt Q9Y5X9)
Assay: Endothelial lipase (EL) enzymatic assay with fluorescent substrate A10070 in DMPG vesicles
Format: biochemical
Summary of the method: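 Substrate A10070 sits in sonicated DMPG vesicles at 0.11 mole fraction. Lipase and compound preincubated 30 min, 37° C, in HEPES pH 8.0 buffer with CaCl2.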

Chain of Endothelial lipase (EL) (Q9Y5X9 21-500): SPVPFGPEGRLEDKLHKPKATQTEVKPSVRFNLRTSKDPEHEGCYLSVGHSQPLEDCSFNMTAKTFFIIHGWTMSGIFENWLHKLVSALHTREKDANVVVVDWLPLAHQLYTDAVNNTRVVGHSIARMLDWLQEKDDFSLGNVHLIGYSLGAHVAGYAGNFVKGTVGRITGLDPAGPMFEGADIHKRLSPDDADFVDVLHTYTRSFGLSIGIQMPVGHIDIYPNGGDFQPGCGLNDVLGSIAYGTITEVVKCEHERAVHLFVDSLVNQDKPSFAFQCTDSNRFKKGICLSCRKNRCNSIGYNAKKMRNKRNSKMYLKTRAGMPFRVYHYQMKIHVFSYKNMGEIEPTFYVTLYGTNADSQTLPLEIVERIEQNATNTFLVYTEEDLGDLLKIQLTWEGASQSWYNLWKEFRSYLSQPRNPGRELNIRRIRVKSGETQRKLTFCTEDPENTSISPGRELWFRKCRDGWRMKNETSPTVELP

| Compound | IC50 [nM] | IC50 (EL from conditioned media of HT-1080 cells, 30 min preincubation at 37° C.) [nM] |
| --- | --- | --- |
| COCCS(=O)(=O)C(C(=O)NCC(=O)NC1CC1)c1nc2cc(C)c(-c3cnc(C4CC4)nc3)cc2s1 (centres unmarked) [Example 163, N-[(cyclopropyl-carbamoyl)methyl]-2-[6-(2-cyclopropyl-pyrimidin-5-yl)-5-methyl-1,3-benzothiazol-2-yl]-2-(2-methoxyethane-sulfonyl) acetamide] | 16 |  |
| COCCS(=O)(=O)C(C(=O)NCC(=O)NC1CC1)c1nc2cc(C(=O)N3CCOCC3)c(F)cc2s1 (centres unmarked) [Example 425, N-(2-(Cyclopropylamino)-2-oxoethyl)-2-(6-fluoro-5-(morpholine-4-carbonyl)benzo[d]thiazol-2-yl)-2-((2-methoxyethyl)sulfonyl)acetamide] |  | 204 |
| COCCS(=O)(=O)C(C(=O)NCC(=O)NC1CC1)c1nc2cc(F)c(-c3ccc(=O)n(C(C)C)c3)cc2s1 (centres unmarked) [Example 160, N-[(cyclopropyl-carbamoyl)methyl]-2-{5-fluoro-6-[6-oxo-1-(propan-2-yl)-1,6-dihydropyridin-3-yl]-1,3-benzothiazol-2-yl}-2-(2-methoxyethane-sulfonyl) acetamide] | 12 |  |
| CC(C)S(=O)(=O)C(C(=O)NCC(=O)NC1CC1)c1nc2c(F)cc(-c3ccc(C(=O)N4CCC4)cc3)cc2s1 (centres unmarked) [Example 284, 2-{6-[4-(azetidine-1-carbonyl)phenyl]-4-fluoro-1,3-benzothiazol-2-yl}-N-[(cyclopropyl-carbamoyl)methyl]-2-(propane-2-sulfonyl)acetamide] | 12 |  |
| CC(C)S(=O)(=O)C(C(=O)NCC(=O)NC1CC1)c1nc2cc(C(F)(F)F)c(-c3ccc(F)nc3)cc2s1 (centres unmarked) [Example 170, N-[(cyclopropyl-carbamoyl)methyl]-2-[6-(6-fluoropyridin-3-yl)-5-(trifluoromethyl)-1,3-benzothiazol-2-yl]-2-(propane-2-sulfonyl) acetamide] | 27 |  |
| O=C(CNC(=O)C(c1nc2cc(-c3ccc(F)nc3)ccc2s1)S(=O)(=O)Cc1ccc(C(F)(F)F)cc1)NC1CC1 (centres unmarked) [Example 17, N-[(cyclopropyl-carbamoyl)methyl]-2-[5-(6-fluoropyridin-3-yl)-1,3-benzothiazol-2-yl]-2-{[4-(trifluoromethyl)phenyl]methanesulfonyl} acetamide] | 46 |  |
| CC(C)(C)OC(=O)N1CCC(S(=O)(=O)C(C(=O)NCC(=O)NC2CC2)c2nc3ccc(-c4ccc(F)nc4)cc3s2)CC1 (centres unmarked) [Example 222, tert-butyl 4-({[(cyclopropyl-carbamoyl)methyl]carbamoyl}[6-(6-fluoropyridin-3-yl)-1,3-benzothiazol-2-yl]methanesulfonyl) piperidine-1-carboxylate] | 78 |  |
| COCCS(=O)(=O)C(C(=O)NCC(=O)NC1CC1)c1nc2ccc(-c3cnc(C(F)(F)F)nc3)cc2s1 (centres unmarked) [Example 301, N-[(cyclopropyl-carbamoyl)methyl]-2-(2-methoxyethane-sulfonyl)-2-{6-[2-(trifluoromethyl)pyrimidin-5-yl]-1,3-benzothiazol-2-yl}acetamide] | 155 |  |
| Cn1ccc(-c2ccc3nc(C(C(=O)NCC(=O)NC4CC4)S(=O)(=O)c4ccc(F)cc4)sc3c2)cc1=O (centres unmarked) [Example 458, N-[(cyclopropyl-carbamoyl)methyl]-2-(4-fluorobenzene-sulfonyl)-2-[6-(1-methyl-2-oxo-1,2-dihydropyridin-4-yl)-1,3-benzothiazol-2-yl]acetamide] | 32 |  |
| O=C(CNC(=O)C(c1nc2ccc(-c3ccc4c(c3)C(=O)NC4)cc2s1)S(=O)(=O)c1ccc(F)cc1)NC1CC1 (centres unmarked) [Example 451, N-[(cyclopropyl-carbamoyl)methyl]-2-(4-fluorobenzene-sulfonyl)-2-[6-(3-oxo-2,3-dihydro-1H-isoindol-5-yl)-1,3-benzothiazol-2-yl}acetamide] | 39 |  |
| COCCS(=O)(=O)C(C(=O)NCC(=O)NC1CC1)c1nc2cc(F)c(-c3ccc(NC(=O)OCC(F)(F)F)cc3)cc2s1 (centres unmarked) [Example 526, 2,2,2-trifluoroethyl N-{4-[2-({[(cyclopropyl-carbamoyl)methyl]carbamoyl}(2-methoxyethane-sulfonyl)methyl)-5-fluoro-1,3-benzothiazol-6-yl]phenyl} carbamate] | 1 |  |
